One experiment has as its target T1, σ2 receptors (Rattus norvegicus, UniProt Q5U3Y7).
T1 construct: from tissue; host or cells: rat liver homogenate (per the earlier reading's assay description)
T1 sequence (Q5U3Y7 1-176): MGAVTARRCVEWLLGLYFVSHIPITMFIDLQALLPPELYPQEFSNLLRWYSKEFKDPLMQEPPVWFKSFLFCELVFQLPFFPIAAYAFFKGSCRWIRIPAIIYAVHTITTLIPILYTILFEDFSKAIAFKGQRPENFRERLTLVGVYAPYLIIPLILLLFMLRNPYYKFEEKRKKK
The experiment is described as follows: In vitro binding to σ2 receptors: inhibition of [3H]DTG binding to rat liver homogenates. An excerpt:
(§1) The ability to bind to sigma-1 or sigma-2 can be measured using methods currently known to those of skill in the art or using those techniques described in U.S. application Ser. No. 60/013717, filed Mar. 30, 1996; in U.S. application Ser. No. 09/142935, filed Sep. 17, 1998; or in U.S. application Ser. No. 09/528398, filed Mar. 20, 2000.

A further experiment has as its target T2, σ1 receptors (Cavia porcellus, UniProt Q60492).
T2 construct: from tissue; host or cells: guinea pig brain homogenate (per the earlier reading's assay description)
The experiment is described as follows: In vitro binding to σ1 receptors: inhibition of [3H](+)-pentazocine binding to guinea pig brain homogenates.
Excerpt: as §1

[1] abbreviates: Table II, footnote b not given, read-out: σ2 (binding to σ2 receptors).
Setting [2] is: Table II, footnote a not given, read-out: σ1 (binding to σ1 receptors).
The mark [3] stands for this setting: Table I, guinea pig brain homogenates (n = 3-5), read-out: σ1: Ki for inhibition of the binding of [3H](+)-pentazocine.

Like-named read-outs stand apart in the source and are kept apart here.

T2 sequence (Q60492 whole entry): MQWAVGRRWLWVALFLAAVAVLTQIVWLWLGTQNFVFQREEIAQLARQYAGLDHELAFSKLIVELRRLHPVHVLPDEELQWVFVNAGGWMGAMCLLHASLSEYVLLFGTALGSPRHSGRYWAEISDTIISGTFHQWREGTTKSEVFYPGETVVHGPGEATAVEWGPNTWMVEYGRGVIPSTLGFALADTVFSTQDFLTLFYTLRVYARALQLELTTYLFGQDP

For the compound `COc1ccc(C)cc1NC(=O)OC1CC2CCCC(C1)N2CCc1ccc(I)cc1` (stereo not shown) [Compound 7a], the values for the Ki at σ2 receptors (setting [1]) and at σ1 receptors (setting [2]) were 0.141 ± 0.00836 µM and 0.175 ± 0.00671 µM, respectively.

As to `COc1ccc(C)cc1NC(=O)OC1CC2CCCC(C1)N2CCc1ccc(NC(=O)OC(C)(C)C)cc1` (stereo not shown) [Compound 7b], the Ki at σ2 receptors (setting [1]) and on σ1 receptors (setting [2]) was greater than 1 µM each time.

In turn, `COc1ccc(C)cc1NC(=O)OC1CC2CCCC(C1)N2C/C=C/c1ccc(N)cc1` (stereo not shown) had a Ki at σ2 receptors of 0.0036 µM.

With `COc1ccc(C)cc1NC(=O)OC1CC2CCCC(C1)N2CCCCc1ccccc1` (stereo not shown) [Compound 6c], the Ki came to 0.00292 ± 0.00021 µM on σ2 receptors and 0.0655 ± 0.0043 µM on σ1 receptors.

Consider `COc1ccc(C)cc1NC(=O)OC1CC2CCCC(C1)N2CCCc1ccc(N)cc1` (stereo not shown), for which the Ki on σ2 receptors worked out at 0.0105 µM.

With `COc1ccc(C)cc1NC(=O)OC1CC2CCCC(C1)N2Cc1ccccc1` (stereo not shown) [—, reference compound], the values for the Ki on σ2 receptors and on σ1 receptors were 0.00306 ± 0.00083 µM and 0.0925 ± 0.011 µM, respectively.

In the case of `COc1ccc(C)cc1NC(=O)OC1CC2CCCC(C1)N2CCCCCCc1ccccc1` (stereo not shown) [Compound 6e], the Ki on σ2 receptors is 0.00761 ± 0.00041 µM; on σ1 receptors (setting [3]) it was 0.214 ± 0.0235 µM.

As to `COc1ccc(C)cc1NC(=O)OC1CC2CCCC(C1)N2CCc1ccccc1` (stereo not shown) [Compound 6a], the Ki came out at 0.0012 ± 0.0001 µM on σ2 receptors and 0.0599 ± 0.0046 µM at σ1 receptors.

For the compound `COc1ccc(C)cc1NC(=O)OC1CC2CCCC(C1)N2CCCCCCCc1ccccc1` (stereo not shown) [Compound 6f], the figures for the Ki on σ2 receptors and at σ1 receptors (setting [3]) were 0.0076 ± 0.00018 µM and 0.23 ± 0.0286 µM, respectively.

On to `COc1ccc(C)cc1NC(=O)OC1CC2CCCC(C1)N2CCc1ccc(N)cc1` (stereo not shown) [Compound 7c], for which the Ki is 0.00778 ± 0.00061 µM on σ2 receptors and greater than 1 µM at σ1 receptors (setting [2]).

`COc1ccc(C)cc1NC(=O)OC1CC2CCCC(C1)N2CCCc1ccccc1` (stereo not shown) [Compound 6b]: the Ki at σ2 receptors came out at 0.00197 ± 0.00012 µM; on σ1 receptors, 0.0729 ± 0.0016 µM.

Consider `COc1ccc(C)cc1NC(=O)OC1CC2CCCC(C1)N2CCCCCc1ccccc1` (stereo not shown) [Compound 6d], for which the Ki at σ2 receptors is 0.00182 ± 0.00019 µM; at σ1 receptors, 0.0173 ± 0.0012 µM.

The values above are taken from patent US6669925B1, “Sigma-2 receptors as biomarkers of tumor cell proliferation” (Wake Forest University, priority 2000, dated 2003).
